Data reported in US9199946B2, “Pyrimidinone carboxamide inhibitors of endothelial lipase” (BRISTOL-MYERS SQUIBB COMPANY, priority 2012, dated 2015).
Read-outs that look alike come from different tables or passages of the source.

Target: T1, Endothelial lipase (EL) (Homo sapiens, UniProt Q9Y5X9)
T1 construct: HT-1080 cells, which were transformed by RAGE technology (Athersys) to overexpress endogenous EL; endogenous in cells; conditioned medium used as the enzyme source
T1 sequence (Q9Y5X9 21-500): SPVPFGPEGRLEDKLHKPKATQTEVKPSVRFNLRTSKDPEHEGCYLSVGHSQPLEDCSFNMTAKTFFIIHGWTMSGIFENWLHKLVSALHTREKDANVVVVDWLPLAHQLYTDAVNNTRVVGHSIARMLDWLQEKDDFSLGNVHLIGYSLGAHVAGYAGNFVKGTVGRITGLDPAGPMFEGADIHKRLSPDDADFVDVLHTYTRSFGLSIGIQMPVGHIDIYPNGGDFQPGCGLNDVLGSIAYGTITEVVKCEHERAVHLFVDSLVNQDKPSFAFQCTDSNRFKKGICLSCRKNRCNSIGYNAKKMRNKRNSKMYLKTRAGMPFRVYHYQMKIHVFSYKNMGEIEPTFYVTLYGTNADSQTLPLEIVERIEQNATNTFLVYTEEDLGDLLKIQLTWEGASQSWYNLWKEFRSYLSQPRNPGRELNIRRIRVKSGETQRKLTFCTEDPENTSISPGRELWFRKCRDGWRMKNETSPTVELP
Assay: Endothelial lipase (EL) enzymatic assay with fluorescent substrate A10070 in DMPG vesicles
Type: biochemical
Outline: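 EL activity was followed as a fluorescence rate (488/530 nm, reads every 20 s for 10 min, linear slope) on A10070 doped at 0.05 mole fraction into sonicated DMPG vesicles. Compound was first incubated 20 min at 37 °C, pH 8.0 HEPES/CaCl2 buffer, with conditioned media from EL-overexpressing HT-1080 cells.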

[1] = range observed in the EL assay, read-out: EL IC50 values
[2] = conditioned media from HT-1080 cells overexpressing endogenous EL, 20 min preincubation at 37° C., read-out: EL IC50

Row | IC50 [1] | IC50 [2] | SMILES
1 | ≤ 10 µM |  | CC(C)(C)COc1ccc(C2CCC(NC(=O)c3[nH]c(=O)[nH]c(=O)c3O)C2)cc1 (centres unmarked) [Example 293, 5-hydroxy-N-(3-(4-(neopentyloxy)phenyl)cyclopentyl)-2,6-dioxo-1,2,3,6-tetrahydropyrimidine-4-carboxamide]
2 | ≤ 10 µM |  | Nc1c(C(=O)NC2CCOc3ccccc32)[nH]c(=O)[nH]c1=O (single isomer, unassigned; enantiomer b) [Example 197, 5-amino-N-(chroman-4-yl)-2,6-dioxo-1,2,3,6-tetrahydropyrimidine-4-carboxamide (Enantiomer B)]
3 | ≤ 10 µM | 3.48 µM | O=C(N[C@H]1CC[C@@H](c2ccccc2)CC1)c1[nH]c(=O)[nH]c(=O)c1NCCCn1ccnc1 [Example 216, 5-(3-(1H-imidazol-1-yl)propylamino)-2,6-dioxo-N-(cis-4-phenylcyclohexyl)-1,2,3,6-tetrahydropyrimidine-4-carboxamide]
4 | ≤ 10 µM |  | Nc1c(C(=O)N[C@@H]2CCCc3c(Oc4ccccc4)cccc32)[nH]c(=O)[nH]c1=O [Example 84, (R)-5-amino-2,6-dioxo-N-(5-phenoxy-1,2,3,4-tetrahydronaphthalen-1-yl)-1,2,3,6-tetrahydropyrimidine-4-carboxamide]
5 |  | 13 µM | Nc1c(C(=O)N[C@H]2CCc3ccc(C(F)(F)F)cc32)[nH]c(=O)[nH]c1=O [Example 15, (S)-5-amino-2,6-dioxo-N-(6-(trifluoromethyl)-2,3-dihydro-1H-inden-1-yl)-1,2,3,6-tetrahydropyrimidine-4-carboxamide]
6 | ≤ 10 µM |  | Nc1c(C(=O)N[C@@H]2CCCc3c(OCc4ccccc4)cccc32)[nH]c(=O)[nH]c1=O [Example 82, (R)-5-amino-N-(5-(benzyloxy)-1,2,3,4-tetrahydronaphthalen-1-yl)-2,6-dioxo-1,2,3,6-tetrahydropyrimidine-4-carboxamide]
7 | ≤ 10 µM | 0.946 µM | Nc1c(C(=O)NC2CCN(c3nc(Br)nn3Cc3ccccc3)C2)[nH]c(=O)[nH]c1=O (centres unmarked) [Example 187, 5-amino-N-(1-(1-benzyl-3-bromo-1H 1,2,4-triazol-5-yl)pyrrolidin-3-yl)-2,6 dioxo-1,2,3,6-tetrahydropyrimidine-4 carboxamide]
8 | ≤ 10 µM |  | O=C(N[C@@H]1CCCc2c(NCc3ccccc3)cccc21)c1[nH]c(=O)[nH]c(=O)c1O [Example 286, (R)-N-(5-(benzylamino)-1,2,3,4-tetrahydronaphthalen-1-yl)-5-hydroxy-2,6-dioxo-1,2,3,6-tetrahydropyrimidine-4-carboxamide]
9 | ≤ 10 µM |  | Nc1c(C(=O)NC2CCCN(c3ncccc3Cl)C2)[nH]c(=O)[nH]c1=O (centres unmarked) [Example 183, 5-amino-N-(1-(3-chloropyridin-2-yl)piperidin-3-yl)-2,6-dioxo-1,2,3,6-tetrahydropyrimidine-4-carboxamide]
10 | ≤ 10 µM |  | COCCNc1c(C(=O)N[C@H]2CC[C@@H](c3ccccc3)CC2)[nH]c(=O)[nH]c1=O [Example 214, 5-(2-methoxyethylamino)-2,6-dioxo-N-(cis-4-phenylcyclohexyl)-1,2,3,6-tetrahydropyrimidine-4-carboxamide]

The next lines start with the molecule.

Row | SMILES | IC50 [1] | IC50 [2]
11 | COc1cccc2c1C[C@H](NC(=O)c1[nH]c(=O)[nH]c(=O)c1N)CC2 [Example 110, (R)-5-amino-N-(8-methoxy-1,2,3,4-tetrahydronaphthalen-2-yl)-2,6-dioxo-1,2,3,6-tetrahydropyrimidine-4-carboxamide] | ≤ 10 µM | 
12 | Nc1c(C(=O)NC2CCC(c3cccc(OCc4ccccc4)c3)C2)[nH]c(=O)[nH]c1=O (single isomer, unassigned) [Example 155, 5-amino-N-(3-(3-(benzyloxy)phenyl)cyclopentyl)-2,6-dioxo-1,2,3,6-tetrahydropyrimidine-4 carboxamide] | ≤ 10 µM | 
13 | Nc1c(C(=O)N[C@@H]2CCCc3ccc(F)cc32)[nH]c(=O)[nH]c1=O [Example 40, (R)-5-amino-N-(7-fluoro-1,2,3,4-tetrahydronaphthalen-1-yl)-2,6-dioxo-1,2,3,6-tetrahydropyrimidine-4-carboxamide] | ≤ 10 µM | 
14 | Nc1c(C(=O)N[C@@H]2CCCc3c(OCC(F)(F)F)cccc32)[nH]c(=O)[nH]c1=O [Example 36, (R)-5-amino-2,6-dioxo-N-(5-(2,2,2-trifluoroethoxy)-1,2,3,4-tetrahydronaphthalen-1-yl)-1,2,3,6-tetrahydropyrimidine-4-carboxamide] | ≤ 10 µM | 
15 | O=C(N[C@H]1CC[C@H](C(=O)Nc2ccccc2)C1)c1[nH]c(=O)[nH]c(=O)c1O [Example 290, 5-hydroxy-2,6-dioxo-N-((1S,3S)-3-(phenylcarbamoyl)cyclopentyl)-1,2,3,6-tetrahydropyrimidine-4-carboxamide] | ≤ 10 µM | 
16 | Nc1c(C(=O)NC2CCN(c3ncccc3Cl)C2)[nH]c(=O)[nH]c1=O (centres unmarked) [Example 186, 5-amino-N-(1-(3-chloropyridin-2-yl)pyrrolidin-3-yl)-2,6-dioxo-1,2,3,6-tetrahydropyrimidine-4-carboxamide] | ≤ 10 µM | 0.042 µM
17 | Nc1c(C(=O)N[C@@H]2CCc3c(-c4ccccc4)cccc32)[nH]c(=O)[nH]c1=O [Example 137, (R)-5-amino-2,6-dioxo-N-(4-phenyl-2,3-dihydro-1H-inden-1-yl)-1,2,3,6-tetrahydropyrimidine-4-carboxamide] | ≤ 10 µM | 0.848 µM
18 | O=C(N[C@H]1CC[C@@H](c2ccccc2)CC1)c1[nH]c(=O)[nH]c(=O)c1NCCCc1ccccc1 [Example 207, 2,6-dioxo-N-(cis-4-phenylcyclohexyl)-5-(3-phenylpropylamino)-1,2,3,6-tetrahydropyrimidine-4-carboxamide] | ≤ 10 µM | 
19 | Cc1ccc(S(=O)(=O)Nc2ccc(C3CCCC(NC(=O)c4[nH]c(=O)[nH]c(=O)c4N)C3)cc2)cc1 (centres unmarked) [Example 128, 5-amino-N-(3-(4-(4-methylphenylsulfonamido)phenyl)cyclohexyl)-2,6-dioxo-1,2,3,6-tetrahydropyrimidine-4-carboxamide] | ≤ 10 µM | 0.013 µM
20 | Nc1c(C(=O)N[C@@H]2CCC[C@@H]2c2ccc(Cl)cc2)[nH]c(=O)[nH]c1=O [Example 64, 5-amino-N-((1R,2R)-2-(4-chlorophenyl)cyclopentyl)-2,6-dioxo-1,2,3,6-tetrahydropyrimidine-carboxamide] | ≤ 10 µM | 
21 | O=C(N[C@H]1CC[C@@H](c2ccccc2)CC1)c1[nH]c(=O)[nH]c(=O)c1NCCO [Example 217, 5-(2-hydroxyethylamino)-2,6-dioxo-N-(cis-4-phenylcyclohexyl)-1,2,3,6-tetrahydropyrimidine-4-carboxamide] | ≤ 10 µM | 
22 | Nc1c(C(=O)NC2CCN(C(=O)Nc3ccc(C(F)(F)F)cc3)c3ccccc32)[nH]c(=O)[nH]c1=O (centres unmarked) [Example 26, 4-(5-amino-2,6-dioxo-1,2,3,6-tetrahydropyrimidine-4-carboxamido)-N-(4-(trifluoromethyl)phenyl)-3,4-dihydroquinoline-1(2H)-carboxamide] | ≤ 10 µM | 9.86 µM
23 | COc1ccc(-c2ccc([C@@H]3CC[C@H](NC(=O)c4[nH]c(=O)[nH]c(=O)c4N)C3)cc2)cc1 [Example 168, 5-amino-N-((1S,3R)-3-(4′-methoxybiphenyl-4-yl)cyclopentyl)-2,6-dioxo-1,2,3,6-tetrahydropyrimidine-4-carboxamide] | ≤ 10 µM | 
24 | Nc1c(C(=O)N[C@@H]2C[C@@H](c3ccccc3)c3ccccc32)[nH]c(=O)[nH]c1=O [Example 42, 5-amino-2,6-dioxo-N-((1R,3S)-3-phenyl-2,3-dihydro-1H-inden-1-yl)-1,2,3,6-tetrahydropyrimidine-4-carboxamide] | ≤ 10 µM | 
25 | NS(=O)(=O)c1ccc(CCNc2c(C(=O)N[C@H]3CC[C@@H](c4ccccc4)CC3)[nH]c(=O)[nH]c2=O)cc1 [Example 226, 2,6-dioxo-N-(cis-4-phenylcyclohexyl)-5-(4-sulfamoylphenethylamino)-1,2,3,6-tetrahydropyrimidine-4-carboxamide] | ≤ 10 µM | 
26 | O=C(N[C@@H]1CC[C@H](c2ccccc2)C1)c1[nH]c(=O)[nH]c(=O)c1O [Example 271, 5-Hydroxy-2,6-dioxo-N-((1R,3S)-3-phenylcyclopentyl)-1,2,3,6-tetrahydropyrimidine-4-carboxamide] | ≤ 10 µM | 
27 | CC(C)CCNc1c(C(=O)N[C@H]2CC[C@@H](c3ccccc3)CC2)[nH]c(=O)[nH]c1=O [Example 210, 5-(isopentylamino)-2,6-dioxo-N-(cis-4-phenylcyclohexyl)-1,2,3,6-tetrahydropyrimidine-4-carboxamide] | ≤ 10 µM | 
28 | Cc1nc(-c2ccccc2)sc1-c1ccc([C@@H]2CC[C@H](NC(=O)c3[nH]c(=O)[nH]c(=O)c3N)C2)cc1 (stereo in doubt) [Example 171, 5-amino-N-((1S,3R)-3-(4-(4-methyl-2-phenylthiazol-5-yl)phenyl)cyclopentyl)-2,6-dioxo-1,2,3,6-tetrahydropyrimidine-4-carboxamide] | ≤ 10 µM | 1.48 µM
